According to ChEMBL document CHEMBL6109071, “Chemical modification for improving drug-like molecular properties of climacostol, a natural resorcinolic lipid” (Bioorg Med Chem, 2025):
In brackets after ≈: the same amount, converted by molar mass. Activity calls are given as the source filed them. The calls are words filed in the database; no cut-off is given here.

Tests used:
[1] = system: SH-SY5Y; assay: Induction of apoptosis in human SH-SY5Y cells assessed as chromatin condensation at 10 to 30 ug/ml measured after 9 hrs by DAPI/phalloidin staining based confocal microscopy; type: functional, cell-based; settings: dose 10-30 µg/ml
[2] = system: Paramecium tetraurelia; assay: Potency index, ratio of climacostol LC50 to test compound LC50 for cytotoxicity against Paramecium tetraurelia stock 51; type: functional
[3] = Toxicity in Drosophila melanogaster Oregon-R assessed as increase in cleaved caspase-3 in the cytoplasm of midgut cells of third instar larvae at 100 ug/ml administered through feeding measured after day 8 to 9 by DAPI immunostaining based confocal microscopy; type: tissue-based; settings: po, time 8-9 day, dose 100 µg/ml
[4] = system: SH-SY5Y; assay: Induction of apoptosis in human SH-SY5Y cells assessed as altered roundness of nuclear area at 10 to 30 ug/ml measured after 9 hrs by DAPI/phalloidin staining based confocal microscopy; type: functional, cell-based; settings: dose 10-30 µg/ml
[5] = system: SH-SY5Y; assay: Induction of apoptosis in human SH-SY5Y cells assessed as increase in caspase-3 expression at 10 to 30 ug/ml measured after 9 hrs by immunostaining based confocal microscopy; type: functional, cell-based; settings: dose 10-30 µg/ml
[6] = system: Paramecium multimicronucleatum; assay: Potency index, ratio of climacostol LC50 to test compound LC50 for cytotoxicity against Paramecium multimicronucleatum clone TL-2; type: functional
[7] = Toxicity in Drosophila melanogaster Oregon-R assessed as change in larvae development by measuring reduction in developed third instar larvae at 100 ug/ml administered through feeding measured twice daily on day 8 to 9 post-treatment relative to control; parameters: scale not given: the % may be the effect or the level left; settings: po, at 100 µg/mL, time 8-9 day
[8] = system: SH-SY5Y; assay: Cytotoxicity against human SH-SY5Y cells assessed as reduction in cell viability at 30 ug/ml measured after 3 hrs by MTT assay relative to control; type: functional
[9] = system: Paramecium multimicronucleatum; assay: Cytotoxicity against Paramecium multimicronucleatum clone TL-2 assessed as reduction in viability measured after 24 hrs; type: functional
[10] = system: Paramecium tetraurelia; assay: Cytotoxicity against Paramecium tetraurelia stock 51 assessed as reduction in viability measured after 1 hr; type: functional
[11] = system: Euplotes aediculatus; assay: Potency index, ratio of climacostol LC50 to test compound LC50 for cytotoxicity against Euplotes aediculatus clone EA-III; type: functional
[12] = system: Blepharisma japonicum; assay: Cytotoxicity against Blepharisma japonicum R1072 assessed as reduction in viability measured after 24 hrs; type: functional
[13] = system: SH-SY5Y; assay: Induction of apoptosis in human SH-SY5Y cells assessed as cytoplasmic shrinkage at 10 to 30 ug/ml measured after 9 hrs by DAPI/phalloidin staining based confocal microscopy; type: functional, cell-based; settings: dose 10-30 µg/ml
[14] = system: Euplotes aediculatus; assay: Cytotoxicity against Euplotes aediculatus clone EA-III assessed as reduction in viability measured after 24 hrs; type: functional
[15] = system: Stentor polymorphus; assay: Cytotoxicity against Stentor polymorphus stock GF-1 assessed as reduction in viability measured after 24 hrs; type: functional
[16] = system: SH-SY5Y; assay: Induction of apoptosis in human SH-SY5Y cells assessed as altered morphology of nuclear area at 10 to 30 ug/ml measured after 9 hrs by DAPI/phalloidin staining based confocal microscopy; type: functional, cell-based; settings: dose 10-30 µg/ml
[17] = system: Stentor polymorphus; assay: Cytotoxicity against Stentor polymorphus stock GF-1 assessed as reduction in viability measured after 1 hr; type: functional
[18] = system: Blepharisma japonicum; assay: Cytotoxicity against Blepharisma japonicum R1072 assessed as reduction in viability measured after 1 hr; type: functional
[19] = system: Paramecium tetraurelia; assay: Cytotoxicity against Paramecium tetraurelia stock 51 assessed as reduction in viability measured after 24 hrs; type: functional
[20] = system: Paramecium multimicronucleatum; assay: Cytotoxicity against Paramecium multimicronucleatum clone TL-2 assessed as reduction in viability measured after 1 hr; type: functional
[21] = system: Spirostomum ambiguum; assay: Cytotoxicity against Spirostomum ambiguum stock Pol-5 assessed as reduction in viability measured after 1 hr; type: functional
[22] = system: Spirostomum teres; assay: Cytotoxicity against Spirostomum teres stock Pol-1 assessed as reduction in viability measured after 1 hr; type: functional
[23] = system: Spirostomum teres; assay: Cytotoxicity against Spirostomum teres stock Pol-1 assessed as reduction in viability measured after 24 hrs; type: functional
[24] = Toxicity in Drosophila melanogaster Oregon-R assessed as DNA fragmentation in digestive tract of third instar larvae at 100 ug/ml administered through feeding measured after day 8 to 9 by TUNEL/DAPI staining based confocal microscopy; settings: po, time 8-9 day, dose 100 µg/ml
[25] = system: SH-SY5Y; assay: Cytotoxicity against human SH-SY5Y cells assessed as cell death at 10 ug/ml measured after 24 hrs by MTT assay relative to control; type: functional
[26] = system: Euplotes aediculatus; assay: Cytotoxicity against Euplotes aediculatus clone EA-III assessed as reduction in viability measured after 1 hr; type: functional
[27] = system: SH-SY5Y; assay: Cytotoxicity against human SH-SY5Y cells assessed as reduction in cell viability measured after 24 hrs by MTT assay; type: functional, cell-based
[28] = system: SH-SY5Y; assay: Cytotoxicity against human SH-SY5Y cells assessed as cell death at 30 ug/ml measured after 24 hrs by MTT assay relative to control; type: functional

SMILES	LC50 [9]	LC50 [10]	LC50 [12]	LC50 [14]	LC50 [15]	LC50 [17]	LC50 [18]	LC50 [19]	LC50 [20]	LC50 [21]	LC50 [22]	LC50 [23]	LC50 [26]	Activity [27]	IC50 [27]	other results
CCCCCC/C=C\Cc1cc(O)cc(O)c1O	0.13 µg/mL (≈ 0.519 µM)	0.29 µg/mL (≈ 1.16 µM)	2.07 µg/mL (≈ 8.27 µM)	0.23 µg/mL (≈ 0.919 µM)	0.54 µg/mL (≈ 2.16 µM)	1.24 µg/mL (≈ 4.95 µM)	3.97 µg/mL (≈ 15.9 µM)	0.21 µg/mL (≈ 0.839 µM)	0.58 µg/mL (≈ 2.32 µM)	3.73 µg/mL (≈ 14.9 µM)	2.24 µg/mL (≈ 8.95 µM)	1.86 µg/mL (≈ 7.43 µM)	0.7 µg/mL (≈ 2.8 µM)	Dose-dependent-effect	4.72 µg/mL (≈ 18.9 µM)	Activity [1]: Active; RatioLC50 [2]: 2.5; Activity [3]: Toxic; Activity [4]: Active; Activity [5]: Active; RatioLC50 [6]: 2.5; Activity [7]: 23%; Activity ([8]; dose 30 µg/ml): 90%; RatioLC50 [11]: 2.5; Activity [13]: Active; Activity [16]: Active; Activity [24]: Toxic; Emax at 10 µg/mL [25]: 90%
CCCCCC/C=C\Cc1cc(O)cc(O)c1	0.88 µg/mL (≈ 3.76 µM)	1.43 µg/mL (≈ 6.1 µM)	2.04 µg/mL (≈ 8.71 µM)	0.83 µg/mL (≈ 3.54 µM)	0.94 µg/mL (≈ 4.01 µM)	1.21 µg/mL (≈ 5.16 µM)	3.17 µg/mL (≈ 13.5 µM)	0.9 µg/mL (≈ 3.84 µM)	1.64 µg/mL (≈ 7 µM)	2.03 µg/mL (≈ 8.66 µM)	2.04 µg/mL (≈ 8.71 µM)	1.68 µg/mL (≈ 7.17 µM)	1.7 µg/mL (≈ 7.25 µM)	Dose-dependent-effect	12.9 µg/mL (≈ 54.9 µM)	Activity ([8]; dose 30.0 µg/ml): inactive; Emax at 30 µg/mL [28]: 90%
